{"source": "patent US20180140578A1", "about": "“METHODS AND COMPOSITIONS FOR THE DIAGNOSIS AND SELECTIVE TREATMENT OF CANCER” (Board of Regents of the University of Texas System, priority 2016, published 2018)", "key": {"[1]": {"system": "A427", "assay": "IC50 assay, NSCLC cell lines (Cell Titer Glo, total ATP)", "format": "cell-based", "conditions": "Homo sapiens", "experimental": "(§1) Cells were plated at ˜15% confluence in a media comprising 5% concentration of fetal bovine serum supplemented with RPMI, which included 2 mM L-Glutamine in a 96 well dish. […] Following three days of incubation in a 5% CO2 incubator, the total ATP in each well was quantified using Cell Titer Glo (Promega). […] The solid lines represent the medians."}, "[2]": {"system": "H157", "assay": "IC50 assay, NSCLC cell lines (Cell Titer Glo, total ATP)", "format": "cell-based", "conditions": "Homo sapiens", "experimental": "as §1"}, "[3]": {"system": "H1581", "assay": "IC50 assay, NSCLC cell lines (Cell Titer Glo, total ATP)", "format": "cell-based", "conditions": "Homo sapiens", "experimental": "as §1"}, "[4]": {"system": "H1650", "assay": "IC50 assay, NSCLC cell lines (Cell Titer Glo, total ATP)", "format": "cell-based", "conditions": "Homo sapiens", "experimental": "as §1"}, "[5]": {"system": "H1693", "assay": "IC50 assay, NSCLC cell lines (Cell Titer Glo, total ATP)", "format": "cell-based", "conditions": "Homo sapiens", "experimental": "as §1"}, "[6]": {"system": "H1755", "assay": "IC50 assay, NSCLC cell lines (Cell Titer Glo, total ATP)", "format": "cell-based", "conditions": "Homo sapiens", "experimental": "as §1"}, "[7]": {"system": "H1819", "assay": "IC50 assay, NSCLC cell lines (Cell Titer Glo, total ATP)", "format": "cell-based", "conditions": "Homo sapiens", "experimental": "as §1"}, "[8]": {"system": "H2009", "assay": "IC50 assay, NSCLC cell lines (Cell Titer Glo, total ATP)", "format": "cell-based", "conditions": "Homo sapiens", "experimental": "as §1"}, "[9]": {"system": "H2126", "assay": "IC50 assay, NSCLC cell lines (Cell Titer Glo, total ATP)", "format": "cell-based", "conditions": "Homo sapiens", "experimental": "as §1"}, "[10]": {"system": "H2250", "assay": "IC50 assay, NSCLC cell lines (Cell Titer Glo, total ATP)", "format": "cell-based", "conditions": "Homo sapiens", "experimental": "as §1"}, "[11]": {"system": "H2444", "assay": "IC50 assay, NSCLC cell lines (Cell Titer Glo, total ATP)", "format": "cell-based", "conditions": "Homo sapiens", "experimental": "as §1"}, "[12]": {"system": "H2452", "assay": "IC50 assay, NSCLC cell lines (Cell Titer Glo, total ATP)", "format": "cell-based", "conditions": "Homo sapiens", "experimental": "as §1"}, "[13]": {"system": "H2882", "assay": "IC50 assay, NSCLC cell lines (Cell Titer Glo, total ATP)", "format": "cell-based", "conditions": "Homo sapiens", "experimental": "as §1"}, "[14]": {"system": "H2887", "assay": "IC50 assay, NSCLC cell lines (Cell Titer Glo, total ATP)", "format": "cell-based", "conditions": "Homo sapiens", "experimental": "as §1"}, "[15]": {"system": "H292", "assay": "IC50 assay, NSCLC cell lines (Cell Titer Glo, total ATP)", "format": "cell-based", "conditions": "Homo sapiens", "experimental": "as §1"}, "[16]": {"system": "H358", "assay": "IC50 assay, NSCLC cell lines (Cell Titer Glo, total ATP)", "format": "cell-based", "conditions": "Homo sapiens", "experimental": "as §1"}, "[17]": {"system": "H720", "assay": "IC50 assay, NSCLC cell lines (Cell Titer Glo, total ATP)", "format": "cell-based", "conditions": "Homo sapiens", "experimental": "as §1"}, "[18]": {"system": "H920", "assay": "IC50 assay, NSCLC cell lines (Cell Titer Glo, total ATP)", "format": "cell-based", "conditions": "Homo sapiens", "experimental": "as §1"}, "[19]": {"system": "HCC2018", "assay": "IC50 assay, NSCLC cell lines (Cell Titer Glo, total ATP)", "format": "cell-based", "conditions": "Homo sapiens", "experimental": "as §1"}, "[20]": {"system": "HCC2814", "assay": "IC50 assay, NSCLC cell lines (Cell Titer Glo, total ATP)", "format": "cell-based", "conditions": "Homo sapiens", "experimental": "as §1"}, "[21]": {"system": "HCC4017", "assay": "IC50 assay, NSCLC cell lines (Cell Titer Glo, total ATP)", "format": "cell-based", "conditions": "Homo sapiens", "experimental": "as §1"}, "[22]": {"system": "HOP62", "assay": "IC50 assay, NSCLC cell lines (Cell Titer Glo, total ATP)", "format": "cell-based", "conditions": "Homo sapiens", "experimental": "as §1"}, "[23]": {"system": "H1155 RBM39 G268V knock-in cells", "assay": "Cell viability assay, RBM39 G268V knock-in", "format": "cell-based, human", "experimental": "(§2) 12-point dose responses were performed on 96-well assay plates with cell plating (1500-4000 cell per well) on day 1, compound addition on day 2, and survival measurement on day 5. Compounds were diluted in DMSO before adding to the cells. Final DMSO concentration was 0.5%. Cell survival assay was performed using CellTiter-Glo Luminescent Cell Viability Assay kit (Promega) that measures cellular ATP content. Luminescence was recorded by EnVison multimode plate reader (Perkin Elmer). IC50 was determined with GraphPad Prism using baseline correction (by normalizing to DMSO control), the asymmetric (five parameter) equation and least squares fit.\n(§3) sgRNA targeting RBM39 (5′-[…]-3′) was cloned into the pSpCas9(BB)-2A-Puro (PX459) vector (Addgene 62988). For RBM39 G268V knock-in, 1 million HCT-116 or H1155 cells were nucleofected (using 4D-Nucleofector, Lonza) with PX459-RBM39 sgRNA and the single-stranded oligo 5′-[…] […] […] […]-3′ (SEQ ID NO: 13)."}, "[24]": {"system": "HCT-116 RBM39 G268V knock-in cells", "assay": "Cell viability assay, RBM39 G268V knock-in", "format": "cell-based, human", "experimental": "as §2, §3"}, "[25]": {"conditions": "read-out: Indisulam IC50 (log 10) (converted), U2AF1 WT"}, "[26]": {"conditions": "read-out: Indisulam IC50, U2AF1 WT"}}, "note": "Read-outs that look alike come from different tables or passages of the source.", "data": [{"smiles": "NS(=O)(=O)c1ccc(S(=O)(=O)Nc2cccc3c(Cl)c[nH]c23)cc1", "note": "[Indisulam, indisulam]", "values": [{"measurement": "IC50", "setting": "[1]; A-427, read-out: Indisulam IC50 (log 10) (converted), U2AF1 WT", "result": 13.9, "unit": "µM"}, {"measurement": "IC50", "setting": "[1]; A-427, read-out: Indisulam IC50, U2AF1 WT", "result": 13.9, "unit": "µM"}, {"measurement": "IC50", "setting": "[2]; NCI-H157, read-out: Indisulam IC50 (log 10) (converted), U2AF1 WT", "result": 140, "unit": "µM"}, {"measurement": "IC50", "setting": "[2]; NCI-H157, read-out: Indisulam IC50, U2AF1 WT", "result": 140, "unit": "µM"}, {"measurement": "IC50", "setting": "[3]; NCI-H1581, read-out: Indisulam IC50 (log 10) (converted), U2AF1 WT", "result": 19.2, "unit": "µM"}, {"measurement": "IC50", "setting": "[3]; NCI-H1581, read-out: Indisulam IC50, U2AF1 WT", "result": 19.2, "unit": "µM"}, {"measurement": "IC50", "setting": "[4]; NCI-H1650, read-out: Indisulam IC50 (log 10) (converted), U2AF1 WT", "result": 31.9, "unit": "µM"}, {"measurement": "IC50", "setting": "[4]; NCI-H1650, read-out: Indisulam IC50, U2AF1 WT", "result": 31.9, "unit": "µM"}, {"measurement": "IC50", "setting": "[5]; NCI-H1693, read-out: Indisulam IC50 (log 10) (converted), U2AF1 WT", "result": 5.17, "unit": "µM"}, {"measurement": "IC50", "setting": "[5]; NCI-H1693, read-out: Indisulam IC50, U2AF1 WT", "result": 5.17, "unit": "µM"}, {"measurement": "IC50", "setting": "[6]; NCI-H1755, read-out: Indisulam IC50 (log 10) (converted), U2AF1 WT", "result": 252, "unit": "µM"}, {"measurement": "IC50", "setting": "[6]; NCI-H1755, read-out: Indisulam IC50, U2AF1 WT", "result": 252, "unit": "µM"}, {"measurement": "IC50", "setting": "[7]; NCI-H1819, read-out: Indisulam IC50 (log 10) (converted), U2AF1 WT", "result": 9.6, "unit": "µM"}, {"measurement": "IC50", "setting": "[7]; NCI-H1819, read-out: Indisulam IC50, U2AF1 WT", "result": 9.6, "unit": "µM"}, {"measurement": "IC50", "setting": "[8]; NCI-H2009, read-out: Indisulam IC50 (log 10) (converted), U2AF1 WT", "result": 17.4, "unit": "µM"}, {"measurement": "IC50", "setting": "[8]; NCI-H2009, read-out: Indisulam IC50, U2AF1 WT", "result": 17.4, "unit": "µM"}, {"measurement": "IC50", "setting": "[9]; NCI-H2126, read-out: Indisulam IC50 (log 10) (converted), U2AF1 WT", "result": 20.5, "unit": "µM"}, {"measurement": "IC50", "setting": "[9]; NCI-H2126, read-out: Indisulam IC50, U2AF1 WT", "result": 20.5, "unit": "µM"}, {"measurement": "IC50", "setting": "[10]; [25]", "result": "≥ 500", "unit": "µM"}, {"measurement": "IC50", "setting": "[10]; [26]", "result": 1180, "unit": "µM"}, {"measurement": "IC50", "setting": "[11]; NCI-H2444, read-out: Indisulam IC50 (log 10) (converted), U2AF1 WT", "result": 14.1, "unit": "µM"}, {"measurement": "IC50", "setting": "[11]; NCI-H2444, read-out: Indisulam IC50, U2AF1 WT", "result": 14.1, "unit": "µM"}, {"measurement": "IC50", "setting": "[12]; NCI-H2452, read-out: Indisulam IC50 (log 10) (converted), U2AF1 WT", "result": 1.21, "unit": "µM"}, {"measurement": "IC50", "setting": "[12]; NCI-H2452, read-out: Indisulam IC50, U2AF1 WT", "result": 1.21, "unit": "µM"}, {"measurement": "IC50", "setting": "[13]; NCI-H2882, read-out: Indisulam IC50 (log 10) (converted), U2AF1 WT", "result": 12.2, "unit": "µM"}, {"measurement": "IC50", "setting": "[13]; NCI-H2882, read-out: Indisulam IC50, U2AF1 WT", "result": 12.2, "unit": "µM"}, {"measurement": "IC50", "setting": "[14]; NCI-H2887, read-out: Indisulam IC50 (log 10) (converted), U2AF1 WT", "result": 9.63, "unit": "µM"}, {"measurement": "IC50", "setting": "[14]; NCI-H2887, read-out: Indisulam IC50, U2AF1 WT", "result": 9.63, "unit": "µM"}, {"measurement": "IC50", "setting": "[15]; NCI-H292, read-out: Indisulam IC50 (log 10) (converted), U2AF1 WT", "result": 1.12, "unit": "µM"}, {"measurement": "IC50", "setting": "[15]; NCI-H292, read-out: Indisulam IC50, U2AF1 WT", "result": 1.12, "unit": "µM"}, {"measurement": "IC50", "setting": "[16]; NCI-H358, read-out: Indisulam IC50 (log 10) (converted), U2AF1 WT", "result": "≥ 500", "unit": "µM"}, {"measurement": "IC50", "setting": "[16]; NCI-H358, read-out: Indisulam IC50, U2AF1 WT", "result": 2840, "unit": "µM"}, {"measurement": "IC50", "setting": "[17]; [25]", "result": 1.79, "unit": "µM"}, {"measurement": "IC50", "setting": "[17]; [26]", "result": 1.79, "unit": "µM"}, {"measurement": "IC50", "setting": "[18]; [25]", "result": 2.17, "unit": "µM"}, {"measurement": "IC50", "setting": "[18]; [26]", "result": 2.17, "unit": "µM"}, {"measurement": "IC50", "setting": "[19]; [25]", "result": 6.48, "unit": "µM"}, {"measurement": "IC50", "setting": "[19]; [26]", "result": 6.48, "unit": "µM"}, {"measurement": "IC50", "setting": "[20]; [25]", "result": 8.72, "unit": "µM"}, {"measurement": "IC50", "setting": "[20]; [26]", "result": 8.72, "unit": "µM"}, {"measurement": "IC50", "setting": "[21]; [25]", "result": 12.6, "unit": "µM"}, {"measurement": "IC50", "setting": "[21]; [26]", "result": 12.6, "unit": "µM"}, {"measurement": "IC50", "setting": "[22]; HOP-62, read-out: Indisulam IC50 (log 10) (converted), U2AF1 WT", "result": 6.08, "unit": "µM"}, {"measurement": "IC50", "setting": "[22]; HOP-62, read-out: Indisulam IC50, U2AF1 WT", "result": 6.08, "unit": "µM"}, {"measurement": "effect of G268V editing on indisulam sensitivity", "setting": "[23]", "result": "indisulam resistance"}, {"measurement": "IC50", "setting": "[24]; Homo sapiens, HCT-116, two independent RBM39 G268V knock-in HCT-116 clones", "result": 38.9, "unit": "µM"}, {"measurement": "IC50", "setting": "[24]; two independent RBM39 G268V knock-in HCT-116 clones", "result": 52.2, "unit": "µM"}]}]}
